Test results as given in ChEMBL document CHEMBL1153245, “A profile of the in vitro anti-tumor activity of imidazolium-based ionic liquids” (2010).

Assays:
Type in all cases: functional
EKVX = assay: Anticancer activity against human EKVX cells assessed cell growth at 10 uM after 48 hrs by sulforhodamine B assay relative to control
HL-60(TB) = assay: Anticancer activity against human HL-60(TB) cells after 48 hrs by sulforhodamine B assay; settings: Homo sapiens, HL-60, 48 h; for CC50: read-out: LC50 (the source's name)
K562 = assay: Anticancer activity against human K562 cells after 48 hrs by sulforhodamine B assay; settings: Homo sapiens, K562, 48 h; for CC50: read-out: LC50 (the source's name)
MOLT-4 = assay: Anticancer activity against human MOLT4 cells after 48 hrs by sulforhodamine B assay; settings: Homo sapiens, MOLT-4, 48 h
[1] = Anticancer activity against human […] cells after 48 hrs by sulforhodamine B assay; settings: Homo sapiens, RPMI8266, 48 h; for CC50: read-out: LC50 (the source's name)
SR = assay: Anticancer activity against human SR cells after 48 hrs by sulforhodamine B assay; settings: Homo sapiens, SR, 48 h; for CC50: read-out: LC50 (the source's name)
A549 = assay: Anticancer activity against human A549 cells after 48 hrs by sulforhodamine B assay; settings: Homo sapiens, A549, 48 h
HOP-92 = assay: Anticancer activity against human HOP92 cells after 48 hrs by sulforhodamine B assay; settings: Homo sapiens, HOP-92, 48 h; for CC50: read-out: LC50 (the source's name)
NCI-H23 = assay: Anticancer activity against human NCI-H23 cells after 48 hrs by sulforhodamine B assay; settings: Homo sapiens, NCI-H23, 48 h; for CC50: read-out: LC50 (the source's name)
NCI-H322M = assay: Anticancer activity against human NCI-H322M cells after 48 hrs by sulforhodamine B assay; settings: Homo sapiens, NCI-H322M, 48 h
COLO 205 = assay: Anticancer activity against human COLO205 cells after 48 hrs by sulforhodamine B assay; settings: Homo sapiens, COLO 205, 48 h; for CC50: read-out: LC50 (the source's name)
HCC 2998 = assay: Anticancer activity against human HCC2998 cells after 48 hrs by sulforhodamine B assay; settings: Homo sapiens, HCC 2998, 48 h; for CC50: read-out: LC50 (the source's name)
HCT-116 = assay: Anticancer activity against human HCT116 cells after 48 hrs by sulforhodamine B assay; settings: Homo sapiens, HCT-116, 48 h; for CC50: read-out: LC50 (the source's name)
HCT-15 = assay: Anticancer activity against human HCT15 cells after 48 hrs by sulforhodamine B assay; settings: Homo sapiens, HCT-15, 48 h; for CC50: read-out: LC50 (the source's name)
HT-29 = assay: Anticancer activity against human HT-29 cells after 48 hrs by sulforhodamine B assay; settings: Homo sapiens, HT-29, 48 h; for CC50: read-out: LC50 (the source's name)
KM12 = assay: Anticancer activity against human KM12 cells after 48 hrs by sulforhodamine B assay; settings: Homo sapiens, KM12, 48 h; for CC50: read-out: LC50 (the source's name)
SF-539 = assay: Anticancer activity against human SF539 cells after 48 hrs by sulforhodamine B assay; settings: Homo sapiens, SF-539, 48 h
U-251 = assay: Anticancer activity against human U251 cells after 48 hrs by sulforhodamine B assay; settings: Homo sapiens, U-251, 48 h; for CC50: read-out: LC50 (the source's name)
Malme-3M = assay: Anticancer activity against human MALME-3M cells after 48 hrs by sulforhodamine B assay; settings: Homo sapiens, Malme-3M, 48 h
M14 = assay: Anticancer activity against human M14 cells after 48 hrs by sulforhodamine B assay; settings: Homo sapiens, M14, 48 h
SK-MEL-2 = assay: Anticancer activity against human SK-MEL-2 cells after 48 hrs by sulforhodamine B assay; settings: SK-MEL-2, 48 h
SK-MEL-28 = assay: Anticancer activity against human SK-MEL-28 cells after 48 hrs by sulforhodamine B assay; settings: Homo sapiens, SK-MEL-28, 48 h
IGROV-1 = assay: Anticancer activity against human IGROV1 cells after 48 hrs by sulforhodamine B assay; settings: IGROV-1, 48 h; for CC50: read-out: LC50 (the source's name)
OVCAR-5 = assay: Anticancer activity against human OVCAR5 cells after 48 hrs by sulforhodamine B assay; settings: Homo sapiens, OVCAR-5, 48 h; for CC50: read-out: LC50 (the source's name)
OVCAR-8 = assay: Anticancer activity against human OVCAR8 cells after 48 hrs by sulforhodamine B assay; settings: Homo sapiens, OVCAR-8, 48 h
SK-OV-3 = assay: Anticancer activity against human SKOV3 cells after 48 hrs by sulforhodamine B assay; settings: Homo sapiens, SK-OV-3, 48 h; for CC50: read-out: LC50 (the source's name)
ACHN = assay: Anticancer activity against human ACHN cells after 48 hrs by sulforhodamine B assay; settings: Homo sapiens, ACHN, 48 h
RXF 393 = assay: Anticancer activity against human RXF393 cells after 48 hrs by sulforhodamine B assay; settings: Homo sapiens, RXF 393, 48 h
SN12C = assay: Anticancer activity against human SN12C cells after 48 hrs by sulforhodamine B assay; settings: Homo sapiens, SN12C, 48 h
TK-10 = assay: Anticancer activity against human TK10 cells after 48 hrs by sulforhodamine B assay; settings: Homo sapiens, TK-10, 48 h
MCF7 = assay: Anticancer activity against human MCF7 cells after 48 hrs by sulforhodamine B assay; settings: Homo sapiens, MCF7, 48 h
MDA-MB-435 = assay: Anticancer activity against human MDA-MB-435 cells after 48 hrs by sulforhodamine B assay; settings: Homo sapiens, MDA-MB-435, 48 h; for CC50: read-out: LC50 (the source's name)
BT-549 = assay: Anticancer activity against human BT549 cells after 48 hrs by sulforhodamine B assay; settings: Homo sapiens, BT-549, 48 h; for CC50: read-out: LC50 (the source's name)
MDA-MB-468 = assay: Anticancer activity against human MDA-MB-468 cells after 48 hrs by sulforhodamine B assay; settings: Homo sapiens, MDA-MB-468, 48 h

Structure (SMILES): Cn1cc[n+](Cc2ccccc2)c1.F[P-](F)(F)(F)(F)F
- Activity (EKVX): 102.53%

Structure (SMILES): Cn1cc[n+](CCO)c1.O=S(=O)([N-]S(=O)(=O)C(F)(F)F)C(F)(F)F
- Activity (EKVX): 100.51%

Structure (SMILES): COCC[n+]1ccn(C)c1.O=S(=O)([N-]S(=O)(=O)C(F)(F)F)C(F)(F)F
- Activity (EKVX): 108.75%

Structure (SMILES): CCCCCCCCCCCCCCCCCC[n+]1ccn(C)c1.FC(F)(F)C(F)(F)[P-](F)(F)(F)(C(F)(F)C(F)(F)F)C(F)(F)C(F)(F)F
- GI50 (HL-60(TB)): 0.238 µM
- CC50 (HL-60(TB)): > 100 µM
- GI50 (K562): 0.238 µM
- CC50 (K562): > 100 µM
- GI50 (MOLT-4): 0.336 µM
- LC50 (MOLT-4): > 100 µM
- GI50 [1]: 0.086 µM
- CC50 [1]: > 100 µM
- GI50 (SR): 3.37 µM
- CC50 (SR): > 100 µM
- GI50 (A549): 0.458 µM
- LC50 (concentration killing 50% of cells) (A549): > 100 µM
- GI50 (HOP-92): 0.211 µM
- CC50 (HOP-92): 22 µM
- GI50 (NCI-H23): 0.224 µM
- CC50 (NCI-H23): 12.7 µM
- GI50 (NCI-H322M): 0.406 µM
- LC50 (NCI-H322M): 5.54 µM
- GI50 (COLO 205): 0.196 µM
- CC50 (COLO 205): 0.778 µM
- GI50 (HCC 2998): 0.271 µM
- CC50 (HCC 2998): 25.5 µM
- GI50 (HCT-116): 0.294 µM
- CC50 (HCT-116): > 100 µM
- GI50 (HCT-15): 0.309 µM
- CC50 (HCT-15): 4.41 µM
- GI50 (HT-29): 0.315 µM
- CC50 (HT-29): > 100 µM
- GI50 (KM12): 0.214 µM
- CC50 (KM12): 0.929 µM
- GI50 (SF-539): 0.288 µM
- LC50 (lethal concentration, 50% cell kill) (SF-539): 4.19 µM
- GI50 (U-251): 0.322 µM
- CC50 (U-251): 3.7 µM
- GI50 (Malme-3M): 0.271 µM
- LC50 (concentration killing 50% of cells) (Malme-3M): 4.25 µM
- GI50 (M14): 0.402 µM
- LC50 (50% lethal concentration) (M14): > 100 µM
- GI50 (SK-MEL-2): 0.372 µM
- LC50 (SK-MEL-2): > 100 µM
- GI50 (SK-MEL-28): 0.374 µM
- LC50 (SK-MEL-28): 3.98 µM
- GI50 (IGROV-1): 0.219 µM
- CC50 (IGROV-1): 1.45 µM
- GI50 (OVCAR-5): 0.489 µM
- CC50 (OVCAR-5): 32.7 µM
- GI50 (OVCAR-8): 0.491 µM
- LC50 (OVCAR-8): > 100 µM
- GI50 (SK-OV-3): 0.355 µM
- CC50 (SK-OV-3): 3.83 µM
- GI50 (ACHN): 0.281 µM
- LC50 (ACHN): 3.55 µM
- GI50 (RXF 393): 0.93 µM
- LC50 (RXF 393): 8.31 µM
- GI50 (SN12C): 0.353 µM
- LC50 (SN12C): 4.18 µM
- GI50 (TK-10): 0.31 µM
- LC50 (TK-10): 4.12 µM
- GI50 (MCF7): 0.309 µM
- LC50 (50% cell kill) (MCF7): 4.69 µM
- GI50 (MDA-MB-435): 0.344 µM
- CC50 (MDA-MB-435): 2.93 µM
- GI50 (BT-549): 0.334 µM
- CC50 (BT-549): 4.2 µM
- GI50 (MDA-MB-468): 0.173 µM
- LC50 (MDA-MB-468): > 100 µM

Structure (SMILES): CCCCCCCCCCCCCCCCCC[n+]1ccn(C)c1.O=S(=O)([N-]S(=O)(=O)C(F)(F)F)C(F)(F)F
- GI50 (HL-60(TB)): 0.293 µM
- CC50 (HL-60(TB)): > 100 µM
- GI50 (K562): 0.312 µM
- CC50 (K562): > 100 µM
- GI50 (MOLT-4): 0.65 µM
- LC50 (MOLT-4): > 100 µM
- GI50 [1]: 0.062 µM
- CC50 [1]: > 100 µM
- GI50 (SR): 1.24 µM
- CC50 (SR): > 100 µM
- GI50 (A549): 1.18 µM
- LC50 (concentration killing 50% of cells) (A549): > 100 µM
- GI50 (HOP-92): 0.35 µM
- CC50 (HOP-92): > 100 µM
- GI50 (NCI-H23): 0.407 µM
- CC50 (NCI-H23): 7.7 µM
- GI50 (NCI-H322M): 1.52 µM
- LC50 (NCI-H322M): 6.4 µM
- GI50 (COLO 205): 0.35 µM
- CC50 (COLO 205): 4.02 µM
- GI50 (HCC 2998): 0.494 µM
- CC50 (HCC 2998): 9.07 µM
- GI50 (HCT-116): 0.651 µM
- CC50 (HCT-116): > 100 µM
- GI50 (HCT-15): 1.07 µM
- CC50 (HCT-15): 5.94 µM
- GI50 (HT-29): 0.378 µM
- CC50 (HT-29): 9.13 µM
- GI50 (KM12): 0.454 µM
- CC50 (KM12): 5.46 µM
- GI50 (SF-539): 0.937 µM
- LC50 (lethal concentration, 50% cell kill) (SF-539): 5.28 µM
- GI50 (U-251): 0.397 µM
- CC50 (U-251): 3.97 µM
- GI50 (Malme-3M): 0.454 µM
- LC50 (concentration killing 50% of cells) (Malme-3M): 5.08 µM
- GI50 (M14): 0.537 µM
- LC50 (50% lethal concentration) (M14): 6.84 µM
- GI50 (SK-MEL-2): 2.09 µM
- LC50 (SK-MEL-2): > 100 µM
- GI50 (SK-MEL-28): 1.14 µM
- LC50 (SK-MEL-28): 6.51 µM
- GI50 (IGROV-1): 0.516 µM
- CC50 (IGROV-1): > 100 µM
- GI50 (OVCAR-5): 0.909 µM
- CC50 (OVCAR-5): 9.14 µM
- GI50 (OVCAR-8): 0.913 µM
- LC50 (OVCAR-8): > 100 µM
- GI50 (SK-OV-3): 1.16 µM
- CC50 (SK-OV-3): 5.82 µM
- GI50 (ACHN): 0.92 µM
- LC50 (ACHN): 4.78 µM
- GI50 (RXF 393): 1.03 µM
- LC50 (RXF 393): 6.55 µM
- GI50 (SN12C): 1.25 µM
- LC50 (SN12C): 5.72 µM
- GI50 (TK-10): 0.407 µM
- LC50 (TK-10): 4.43 µM
- GI50 (MCF7): 1 µM
- LC50 (50% cell kill) (MCF7): 5.52 µM
- GI50 (MDA-MB-435): 1.08 µM
- CC50 (MDA-MB-435): 6.69 µM
- GI50 (BT-549): 1.06 µM
- CC50 (BT-549): 5.95 µM
- GI50 (MDA-MB-468): 0.196 µM
- LC50 (MDA-MB-468): > 100 µM
